Test results from PMC6791383, “A side-by-side evaluation of [^18F]FDOPA enantiomers for non-invasive detection of neuroendocrine tumors by positron emission tomography” (Oncotarget, 2019).
Values joined by “and” are separate entries in the source; they are usually repeats but may differ in a detail not shown here. Equal values may be shown once.

Experiments:
LAT1 = test: In vivo PET-CT blocking by BCH in NET mouse models; parameters: species or system mice; details: all NET mouse models (PC12, STC-1, COLO-320), 10meq LAT1 inhibitor
Protocol: (§1) Mice (n=4) were injected with 9MBq (250μCi) of each tracer in 150μL of saline intravenously and anesthetized with 3% isoflurane prior to being placed on the scanner bed. Mice were kept warm with an external light source and maintained at 1% isoflurane levels while being scanned. PET imaging (2 beds; 10 min per bed) was carried out using an ARGUS small-animal PET/CT scanner (Sedecal). A CT scan (512 projections) was obtained at the end of each PET scan for anatomical co-registration. For in vivo blocking experiments, mice were injected with 10meq of LAT1 inhibitor. PET data were reconstructed using the 2-dimensional ordered subsets-expectation maximization algorithm (2D-OSEM) and corrected for dead time and radioactive decay. Data visualization and image generation were carried out using Amira 2019.1 (ThermoFisher Scientific).
(§2) Quantitative in vivo image analysis was carried out in AMIDE (SourceForge) 1.0.4 utilizing ellipsoid region-of-interest volume integrations with 3 slices entailing a depth of 1.9 mm per slice. The %ID per cc values were calculated based on a calibration factor obtained from a phantom (known radioactive quantity in a known volume).

STC-1 xenografts [1] = test: Ex vivo biodistribution in NSG mice bearing STC-1 xenografts; details: STC-1 xenograft NSG mice, 1.5MBq i.v.
Protocol: (§3) All animal studies were carried out according to regulations set forth and approved by the Johns Hopkins Animal Care and Use Committee. Female, 6- to 8-weeks-old immunodeficient NOD scid gamma (NSG) mice were subcutaneously inoculated with 1 million PC12, STC-1 or COLO-320 cells in […] of Hank’s balanced salt solution in the top flank. Tumors of 4–6 mm in diameter (typically 14-21 days post inoculation) were utilized for in vivo imaging or ex vivo biodistribution studies.
(§4) Mice (n=5 per group) were intravenously injected with 1.5MBq (40μCi) of each tracer in 150μL of saline. Ex vivo biodistribution studies were performed at 30min and 120min time points after tracer administration. Blood, liver, spleen, heart, lungs, kidneys, small intestines, stomach, muscle, fat, bone, bladder, brain and tumor tissues were retrieved, weighed, and counted in an automated gamma counter (1282 Compugamma CS). Percentage injected dose per gram (%ID/g) values were calculated based on normalization to external standards, counted in triplicate, and accounted for signal-decay correction.

PC12 xenografts [2] = test: In vivo PET-CT quantitative image analysis, PC12 xenografts; details: PC12 tumors, NSG mice, 9MBq
Protocol: as §3, §1, §2

PC12 cells = test: In vitro uptake (binding) assay in PC12 cells; format: cell-based; details: 30mins incubation, 1 million cells
Protocol: (§5) Both [^18F]FDOPA enantiomers were initially assessed in vitro in all NET cells.
(§6) In vitro binding assays were carried out, in triplicate, in PBS with 0.5% FBS, for 30mins at ambient temperatures using 1 million cells and repeated three times. Blocking studies were carried out using 10meq of the commercial LAT1 inhibitor, 2-Aminobicyclo[2.2.1]heptane-2-carboxylic acid (TOCRIS, MN, USA). Following incubation with each tracer, cells were rinsed three times with cold PBS prior to being counted on an automated gamma counter (1282 Compugamma CS; Pharmacia/LKBNuclear, Inc.) along with external standards. Obtained counts were converted into percentage incubated dose per million cells based on normalization to external standards. Experiments were performed in triplicate and repeated three times.

COLO-320 xenografts [3] = test: Ex vivo biodistribution in NSG mice bearing COLO-320 xenografts; details: for small intestines retention, fold higher than tumor uptake: COLO-320 mice
Protocol: as §3, §4

STC-1 xenografts [4] = test: In vivo PET-CT quantitative image analysis, STC-1 xenografts; details: STC-1 tumors, NSG mice, 9MBq
Protocol: as §3, §1, §2

[5] = tested on: NET xenografts (STC-1, PC12, COLO-320); test: Ex vivo biodistribution, across all NET mouse models; format: in vivo, mice; details: for brain accumulation, average in all NET mice: average over STC-1, COLO-320 and PC12 mice
Protocol: as §3, §4

COLO-320 xenografts [6] = test: In vivo PET-CT quantitative image analysis, COLO-320 xenografts; details: COLO-320 tumors, NSG mice, 9MBq
Protocol: as §3, §1, §2

PC12 xenografts [7] = test: Ex vivo biodistribution in NSG mice bearing PC12 xenografts; details: PC12 xenograft NSG mice, 1.5MBq i.v.
Protocol: as §3, §4

STC-1 cells = test: In vitro uptake (binding) assay in STC-1 cells; format: cell-based; details: 30mins incubation, 1 million cells, % incubated dose/million cells
Protocol: as §5, §6

[8] = COLO-320 xenograft NSG mice, 30min p.i., 1.5MBq i.v.
[9] = COLO-320 xenograft NSG mice, 120min p.i., 1.5MBq i.v.

N[C@@H](Cc1cc(O)c(O)cc1[18F])C(=O)O [L-[^18F]FDOPA, 3,4-dihydroxy-6-[^18F]fluoro-L-phenylalanine]
tumor uptake after in vivo blocking by BCH (LAT1): significantly reduced
Biodistribution, Bladder (STC-1 xenografts [1]; 30min p.i.): 5.15 %ID/g
Biodistribution, Blood (STC-1 xenografts [1]; 30min p.i.): 3.94 %ID/g
Biodistribution, Bone (STC-1 xenografts [1]; 30min p.i.): 3.09 %ID/g
Biodistribution, Brain (STC-1 xenografts [1]; 30min p.i.): 2.16 %ID/g
Biodistribution, Fat (STC-1 xenografts [1]; 30min p.i.): 1.34 %ID/g
Biodistribution, Heart (STC-1 xenografts [1]; 30min p.i.): 2.72 %ID/g
Biodistribution, Kidneys (STC-1 xenografts [1]; 30min p.i.): 8.90 %ID/g
Biodistribution, Liver (STC-1 xenografts [1]; 30min p.i.): 4.87 %ID/g
Biodistribution, Lungs (STC-1 xenografts [1]; 30min p.i.): 4.13 %ID/g
Biodistribution, Muscle (STC-1 xenografts [1]; 30min p.i.): 3.63 %ID/g
Biodistribution, Pancreas (STC-1 xenografts [1]; 30min p.i.): 44.22 %ID/g
Biodistribution, Small Intestines (STC-1 xenografts [1]; 30min p.i.): 16.04±2.47 %ID/g and 16.43 %ID/g
Biodistribution, Spleen (STC-1 xenografts [1]; 30min p.i.): 3.98 %ID/g
Biodistribution, Stomach (STC-1 xenografts [1]; 30min p.i.): 8.97 %ID/g
Biodistribution, Tumor (STC-1 xenografts [1]; 30min p.i.): 11.06 %ID/g
Biodistribution, Bladder (STC-1 xenografts [1]; 120min p.i.): 8.80 %ID/g
Biodistribution, Blood (STC-1 xenografts [1]; 120min p.i.): 1.47 %ID/g
Biodistribution, Bone (STC-1 xenografts [1]; 120min p.i.): 5.40 %ID/g
Biodistribution, Brain (STC-1 xenografts [1]; 120min p.i.): 1.07 %ID/g
Biodistribution, Fat (STC-1 xenografts [1]; 120min p.i.): 0.78 %ID/g
Biodistribution, Heart (STC-1 xenografts [1]; 120min p.i.): 2.34 %ID/g
Biodistribution, Kidneys (STC-1 xenografts [1]; 120min p.i.): 4.00 %ID/g
Biodistribution, Liver (STC-1 xenografts [1]; 120min p.i.): 1.73 %ID/g
Biodistribution, Lungs (STC-1 xenografts [1]; 120min p.i.): 1.89 %ID/g
Biodistribution, Muscle (STC-1 xenografts [1]; 120min p.i.): 2.75 %ID/g
Biodistribution, Pancreas (STC-1 xenografts [1]; 120min p.i.): 20±0.89 %ID/g and 20.71 %ID/g
Biodistribution, Small Intestines (STC-1 xenografts [1]; 120min p.i.): 5.08 %ID/g
Biodistribution, Spleen (STC-1 xenografts [1]; 120min p.i.): 6.55 %ID/g
Biodistribution, Stomach (STC-1 xenografts [1]; 120min p.i.): 6.83 %ID/g
Biodistribution, Tumor (STC-1 xenografts [1]; 120min p.i.): 6.98 %ID/g
tumor uptake, quantitative PET image analysis (PC12 xenografts [2]; 30min post i.v. injection): 35.73±2.50 %ID/cc
tumor uptake, quantitative PET image analysis (PC12 xenografts [2]; 120min post i.v. injection): 18.82±1.55 %ID/cc
in vitro uptake (PC12 cells): 19.73±0.71 % (incubated dose/million cells)
small intestines retention, fold higher than tumor uptake (COLO-320 xenografts [3]; 30min): 5 fold
small intestines retention, fold higher than tumor uptake (COLO-320 xenografts [3]; 120min): 3 fold
Biodistribution, Bladder (COLO-320 xenografts [3]; [8]): 8.38 %ID/g
Biodistribution, Blood (COLO-320 xenografts [3]; [8]): 5.53 %ID/g
Biodistribution, Bone (COLO-320 xenografts [3]; [8]): 5.05 %ID/g
Biodistribution, Brain (COLO-320 xenografts [3]; [8]): 2.58 %ID/g
Biodistribution, Fat (COLO-320 xenografts [3]; [8]): 0.95 %ID/g
Biodistribution, Heart (COLO-320 xenografts [3]; [8]): 3.85 %ID/g
Biodistribution, Kidneys (COLO-320 xenografts [3]; [8]): 13.60 %ID/g
Biodistribution, Liver (COLO-320 xenografts [3]; [8]): 10.68 %ID/g
Biodistribution, Lungs (COLO-320 xenografts [3]; [8]): 6.11 %ID/g
Biodistribution, Muscle (COLO-320 xenografts [3]; [8]): 5.27 %ID/g
Biodistribution, Pancreas (COLO-320 xenografts [3]; [8]): 57.82 %ID/g
Biodistribution, Small Intestines (COLO-320 xenografts [3]; [8]): 15.72 %ID/g
Biodistribution, Spleen (COLO-320 xenografts [3]; [8]): 5.72 %ID/g
Biodistribution, Stomach (COLO-320 xenografts [3]; [8]): 11.27 %ID/g
Biodistribution, Tumor (COLO-320 xenografts [3]; [8]): 5.15 %ID/g
Biodistribution, Bladder (COLO-320 xenografts [3]; [9]): 14.73 %ID/g
Biodistribution, Blood (COLO-320 xenografts [3]; [9]): 2.44 %ID/g
Biodistribution, Bone (COLO-320 xenografts [3]; [9]): 7.40 %ID/g
Biodistribution, Brain (COLO-320 xenografts [3]; [9]): 1.28 %ID/g
Biodistribution, Fat (COLO-320 xenografts [3]; [9]): 1.76 %ID/g
Biodistribution, Heart (COLO-320 xenografts [3]; [9]): 2.74 %ID/g
Biodistribution, Kidneys (COLO-320 xenografts [3]; [9]): 4.16 %ID/g
Biodistribution, Liver (COLO-320 xenografts [3]; [9]): 2.85 %ID/g
Biodistribution, Lungs (COLO-320 xenografts [3]; [9]): 2.55 %ID/g
Biodistribution, Muscle (COLO-320 xenografts [3]; [9]): 4.40 %ID/g
Biodistribution, Pancreas (COLO-320 xenografts [3]; [9]): 37±5.43 %ID/g and 37.13 %ID/g
Biodistribution, Small Intestines (COLO-320 xenografts [3]; [9]): 8.66 %ID/g
Biodistribution, Spleen (COLO-320 xenografts [3]; [9]): 6.72 %ID/g
Biodistribution, Stomach (COLO-320 xenografts [3]; [9]): 7.99 %ID/g
tumor uptake, quantitative PET image analysis (STC-1 xenografts [4]; 30min post i.v. injection): 33.29±1.66 %ID/cc
tumor uptake, quantitative PET image analysis (STC-1 xenografts [4]; 120min post i.v. injection): 10.38±1.31 %ID/cc
brain accumulation, average in all NET mice ([5]; 30min p.i.): 2.21±0.17 %ID/g
brain accumulation, average in all NET mice ([5]; 120min p.i.): 1.22±0.16 %ID/g
tumor uptake, fold higher in STC-1 than in COLO-320 tumors ([5]; STC-1 vs COLO-320 tumors): > 2 fold
tumor uptake, quantitative PET image analysis (COLO-320 xenografts [6]; 30min post i.v. injection): 11.99±0.50 %ID/cc
tumor uptake, quantitative PET image analysis (COLO-320 xenografts [6]; 120min post i.v. injection): 15.10±1.30 %ID/cc
Biodistribution, Bladder (PC12 xenografts [7]; 30min p.i.): 7.24 %ID/g
Biodistribution, Blood (PC12 xenografts [7]; 30min p.i.): 4.14 %ID/g
Biodistribution, Bone (PC12 xenografts [7]; 30min p.i.): 3.86 %ID/g
Biodistribution, Brain (PC12 xenografts [7]; 30min p.i.): 1.90 %ID/g
Biodistribution, Fat (PC12 xenografts [7]; 30min p.i.): 1.25 %ID/g
Biodistribution, Heart (PC12 xenografts [7]; 30min p.i.): 2.96 %ID/g
Biodistribution, Kidneys (PC12 xenografts [7]; 30min p.i.): 14.60 %ID/g
Biodistribution, Liver (PC12 xenografts [7]; 30min p.i.): 8.59 %ID/g
Biodistribution, Lungs (PC12 xenografts [7]; 30min p.i.): 4.57 %ID/g
Biodistribution, Muscle (PC12 xenografts [7]; 30min p.i.): 4.70 %ID/g
Biodistribution, Pancreas (PC12 xenografts [7]; 30min p.i.): 50.08 %ID/g
Biodistribution, Small Intestines (PC12 xenografts [7]; 30min p.i.): 11.50 %ID/g
Biodistribution, Spleen (PC12 xenografts [7]; 30min p.i.): 4.30 %ID/g
Biodistribution, Stomach (PC12 xenografts [7]; 30min p.i.): 9.04 %ID/g
Biodistribution, Bladder (PC12 xenografts [7]; 120min p.i.): 14.06 %ID/g
Biodistribution, Blood (PC12 xenografts [7]; 120min p.i.): 2.19 %ID/g
Biodistribution, Bone (PC12 xenografts [7]; 120min p.i.): 7.19 %ID/g
Biodistribution, Brain (PC12 xenografts [7]; 120min p.i.): 1.31 %ID/g
Biodistribution, Fat (PC12 xenografts [7]; 120min p.i.): 1.78 %ID/g
Biodistribution, Heart (PC12 xenografts [7]; 120min p.i.): 2.45 %ID/g
Biodistribution, Kidneys (PC12 xenografts [7]; 120min p.i.): 4.84 %ID/g
Biodistribution, Liver (PC12 xenografts [7]; 120min p.i.): 3.01 %ID/g
Biodistribution, Lungs (PC12 xenografts [7]; 120min p.i.): 2.43 %ID/g
Biodistribution, Muscle (PC12 xenografts [7]; 120min p.i.): 3.48 %ID/g
Biodistribution, Pancreas (PC12 xenografts [7]; 120min p.i.): 36.66 %ID/g
Biodistribution, Small Intestines (PC12 xenografts [7]; 120min p.i.): 10.02 %ID/g
Biodistribution, Spleen (PC12 xenografts [7]; 120min p.i.): 6.11 %ID/g
Biodistribution, Stomach (PC12 xenografts [7]; 120min p.i.): 8.28 %ID/g
in vitro uptake (STC-1 cells): 2.97±0.07%
